Assay results published in ChEMBL document CHEMBL5506066, “Potency-Enhanced Peptidomimetic VHL Ligands with Improved Oral Bioavailability” (J Med Chem, 2024).

Tests used:
[1] = molecular target: T1, von Hippel-Lindau disease tumor suppressor (Homo sapiens, UniProt P40337); assay: biochemical
Description: Binding affinity to VHL (unknown origin)-NanoLuc fusion protein expressed in HEK293 cells assessed as apparent dissociation constant incubated for 30 mins in presence of digitonin by NanoBRET assay

[2] = molecular target: T1, von Hippel-Lindau disease tumor suppressor

T1 sequence (P40337 whole entry): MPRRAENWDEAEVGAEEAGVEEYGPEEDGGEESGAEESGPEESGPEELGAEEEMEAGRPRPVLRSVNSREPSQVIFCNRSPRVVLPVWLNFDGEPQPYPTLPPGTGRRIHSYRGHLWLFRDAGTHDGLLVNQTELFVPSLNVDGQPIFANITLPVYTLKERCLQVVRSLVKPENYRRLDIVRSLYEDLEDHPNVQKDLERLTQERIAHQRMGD

Row | Kd [1] | Kd [2] | SMILES
1 | 8.9 µM | 26.6 µM | CSCC[C@H](NC(C)=O)C(=O)N1C[C@H](O)C[C@H]1C(=O)N[C@H](Cc1ccc(-c2ccccc2)cc1)C(N)=O
2 | 3.9 µM | 15.4 µM | CC(=O)N[C@H](C(=O)N1C[C@H](O)C[C@H]1C(=O)N[C@H](Cc1ccc(-c2ccccc2)cc1)C(N)=O)C1(C)CC1
3 | 4.9 µM | 10.5 µM | CC(=O)N1CCCC[C@H]1C(=O)N1C[C@H](O)C[C@H]1C(=O)N[C@H](Cc1ccc(-c2ccccc2)cc1)C(N)=O
4 | > 51.8 µM | > 57.5 µM | CC(=O)NC(C)(C)C(=O)N1C[C@H](O)C[C@H]1C(=O)N[C@H](Cc1ccc(-c2ccccc2)cc1)C(N)=O
5 | > 51.8 µM | > 57.5 µM | CC(=O)NC1(C(=O)N2C[C@H](O)C[C@H]2C(=O)N[C@H](Cc2ccc(-c3ccccc3)cc2)C(N)=O)CCC1
6 | 48 µM | 57.5 µM | CC(=O)N1CC[C@H]1C(=O)N1C[C@H](O)C[C@H]1C(=O)N[C@H](Cc1ccc(-c2ccccc2)cc1)C(N)=O
7 | 14.2 µM | > 57.5 µM | CC(=O)N[C@@H](Cc1cscn1)C(=O)N1C[C@H](O)C[C@H]1C(=O)N[C@H](Cc1ccc(-c2ccccc2)cc1)C(N)=O
8 | > 51.8 µM | > 57.5 µM | CC(=O)NC1(C(=O)N2C[C@H](O)C[C@H]2C(=O)N[C@H](Cc2ccc(-c3ccccc3)cc2)C(N)=O)CC1
9 | 11.5 µM | > 57.5 µM | CC(=O)N[C@H](C(=O)N1C[C@H](O)C[C@H]1C(=O)N[C@H](Cc1ccc(-c2ccccc2)cc1)C(N)=O)C1CCNCC1
10 | 12.9 µM | 31.1 µM | CC(=O)N[C@@H](CC1CC1)C(=O)N1C[C@H](O)C[C@H]1C(=O)N[C@H](Cc1ccc(-c2ccccc2)cc1)C(N)=O
11 | 45.7 µM | > 57.5 µM | CC(C)[C@@H](C(=O)N1C[C@H](O)C[C@H]1C(=O)N[C@H](Cc1ccc(-c2ccccc2)cc1)C(N)=O)c1cnn(C)c1
12 | > 51.8 µM | > 57.5 µM | NC(=O)[C@@H](Cc1ccc(-c2ccccc2)cc1)NC(=O)[C@@H]1C[C@@H](O)CN1C(=O)Cc1cncs1
13 | > 51.8 µM | > 57.5 µM | CC(=O)NCC(=O)N1C[C@H](O)C[C@H]1C(=O)N[C@H](Cc1ccc(-c2ccccc2)cc1)C(N)=O
14 | > 51.8 µM | > 57.5 µM | NC(=O)[C@@H](Cc1ccc(-c2ccccc2)cc1)NC(=O)[C@@H]1C[C@@H](O)CN1C(=O)Cc1cnco1
15 | 17.3 µM | > 57.5 µM | CC(=O)N[C@@H](CCCN)C(=O)N1C[C@H](O)C[C@H]1C(=O)N[C@H](Cc1ccc(-c2ccccc2)cc1)C(N)=O
16 | 2.7 µM | > 57.5 µM | CC(=O)N[C@H](C(=O)N1C[C@H](O)C[C@H]1C(=O)N[C@H](Cc1ccc(-c2ccccc2)cc1)C(N)=O)C1CCN(C(C)=O)CC1
17 | 2.4 µM | 6.6 µM | CC(=O)NC(C(=O)N1C[C@H](O)C[C@H]1C(=O)N[C@H](Cc1ccc(-c2ccccc2)cc1)C(N)=O)C12CC(C(F)(F)F)(C1)C2 (stereo partly drawn)
18 | > 51.8 µM | > 57.5 µM | NC(=O)[C@@H](Cc1ccc(-c2ccccc2)cc1)NC(=O)[C@@H]1C[C@@H](O)CN1C(=O)Cc1ccoc1
19 | 12.7 µM | > 57.5 µM | CC(=O)N1CCC[C@H]1C(=O)N1C[C@H](O)C[C@H]1C(=O)N[C@H](Cc1ccc(-c2ccccc2)cc1)C(N)=O
20 | > 51.8 µM | > 57.5 µM | CC(=O)NC1(C(=O)N2C[C@H](O)C[C@H]2C(=O)N[C@H](Cc2ccc(-c3ccccc3)cc2)C(N)=O)CCCCC1

Further lines, the compound ahead of its results:

Row | SMILES | Kd [1] | Kd [2]
21 | COc1ccccc1-c1ccc(C[C@@H](NC(=O)[C@@H]2C[C@@H](O)CN2C(=O)[C@@H](NC(C)=O)C(C)(C)C)C(N)=O)cc1 | 4.3 µM | 12.2 µM
22 | CC(C)[C@@H](C(=O)N1C[C@H](O)C[C@H]1C(=O)N[C@H](Cc1ccc(-c2ccccc2)cc1)C(N)=O)c1cccnc1 | 32.1 µM | 24.7 µM
23 | CCC(C)(C)[C@@H](C(=O)N1C[C@H](O)C[C@H]1C(=O)N[C@H](Cc1ccc(-c2ccccc2)cc1)C(N)=O)n1cc(C2CC2)nn1 | 0.069 µM | 0.059 µM
24 | Cc1ncsc1-c1ccc(CNC(=O)[C@@H]2C[C@@H](O)CN2C(=O)[C@@H](n2cc(C3CC3)nn2)C(C)(C)C)cc1 | 0.0065 µM | 0.0063 µM
25 | NC(=O)[C@@H](Cc1ccc(-c2ccccc2)cc1)NC(=O)[C@@H]1C[C@@H](O)CN1C(=O)[C@H](C1CCC1)n1cc(C2CC2)nn1 | 0.1 µM | 0.11 µM
26 | NC(=O)[C@@H](Cc1ccc(-c2ccccc2)cc1)NC(=O)[C@@H]1C[C@@H](O)CN1C(=O)[C@@H](n1cc(C2CC2)nn1)C12CC3CC(CC(C3)C1)C2 | 0.083 µM | 0.067 µM
27 | Cc1cn([C@H](C(=O)N2C[C@H](O)C[C@H]2C(=O)N[C@H](Cc2ccc(-c3ccccc3)cc2)C(N)=O)C(C)C)cn1 | 48.5 µM | > 57.5 µM
28 | CC(=O)N[C@H](C(=O)N1C[C@H](O)C[C@H]1C(=O)N[C@H](Cc1ccc(-c2ccccc2)cc1)C(N)=O)C(c1ccccc1)c1ccccc1 | 47 µM | > 57.5 µM
29 | NC(=O)[C@@H](Cc1ccc(-c2ccccc2)cc1)NC(=O)[C@@H]1C[C@@H](O)CN1C(=O)Cc1ccon1 | > 51.8 µM | > 57.5 µM
30 | Cc1ccc(CC(=O)N2C[C@H](O)C[C@H]2C(=O)N[C@H](Cc2ccc(-c3ccccc3)cc2)C(N)=O)cn1 | > 51.8 µM | > 57.5 µM
31 | C=CC(C)(C)[C@@H](C(=O)N1C[C@H](O)C[C@H]1C(=O)N[C@H](Cc1ccc(-c2ccccc2)cc1)C(N)=O)n1cc(C2CC2)nn1 | 0.084 µM | 0.063 µM
32 | CC(=O)N[C@H](C(=O)N1C[C@H](O)C[C@H]1C(=O)N[C@H](Cc1ccc(-c2ccccc2)cc1)C(N)=O)C(C)(C)c1ccccc1 | 3.1 µM | 4.6 µM
33 | COc1ccc(-c2ccc(C[C@@H](NC(=O)[C@@H]3C[C@@H](O)CN3C(=O)[C@@H](NC(C)=O)C(C)(C)C)C(N)=O)cc2)cc1 | 30.9 µM | > 57.5 µM
34 | CC(=O)N[C@H](C(=O)N1C[C@H](O)C[C@H]1C(=O)NC(C(N)=O)c1ccc(-c2scnc2C)cc1)C(C)(C)C (mixture of isomers) | 0.5 µM | 5.17 µM
35 | Cc1cc(CC(=O)N2C[C@H](O)C[C@H]2C(=O)N[C@H](Cc2ccc(-c3ccccc3)cc2)C(N)=O)on1 | 24.4 µM | 46.9 µM
36 | CC(=O)N[C@H](C(=O)N1C[C@H](O)C[C@H]1C(=O)N[C@H](Cc1ccc(-c2ccccc2)cc1)C(N)=O)C12CC3CC(CC(C3)C1)C2 | 0.41 µM | 0.68 µM
37 | CC(=O)N[C@@H](Cc1ccccc1)C(=O)N1C[C@H](O)C[C@H]1C(=O)N[C@H](Cc1ccc(-c2ccccc2)cc1)C(N)=O | 18.1 µM | > 57.5 µM
38 | CC(=O)N[C@H](C(=O)N1C[C@H](O)C[C@H]1C(=O)N[C@H](Cc1ccc(-c2ccccc2Cl)cc1)C(N)=O)C(C)(C)C | 1.8 µM | 5.5 µM
39 | CC(C)(C)[C@@H](C(=O)N1C[C@H](O)C[C@H]1C(=O)N[C@H](Cc1ccc(-c2ccccc2)cc1)C(N)=O)n1cc(C2CC2)nn1 | 0.071 µM | 0.085 µM
40 | NC(=O)[C@@H](Cc1ccc(-c2ccccc2)cc1)NC(=O)[C@@H]1C[C@@H](O)CN1C(=O)Cc1cccnn1 | > 51.8 µM | > 57.5 µM

Row | SMILES | Kd [1] | Kd [2]
41 | CC(=O)N[C@H](C(=O)N1C[C@H](O)C[C@H]1C(=O)N[C@H](Cc1ccc(-c2ccc(F)c(Cl)c2)cc1)C(N)=O)C(C)(C)C | 3.5 µM | 11 µM
42 | Cc1cc(C2(C(=O)N3C[C@H](O)C[C@H]3C(=O)N[C@H](Cc3ccc(-c4ccccc4)cc3)C(N)=O)CC2)on1 | > 51.8 µM | > 57.5 µM
43 | CC(=O)N[C@H](C(=O)N1C[C@H](O)C[C@H]1C(=O)N[C@H](Cc1ccc(-c2ccc(F)cn2)cc1)C(N)=O)C(C)(C)C | 2.9 µM | 6.6 µM
44 | CC(=O)N[C@H](C(=O)N1C[C@H](O)C[C@H]1C(=O)N[C@H](Cc1ccc(-c2ccccc2F)cc1)C(N)=O)C(C)(C)C | 2.7 µM | 4.4 µM
45 | COc1ccc(-c2ccc(C[C@@H](NC(=O)[C@@H]3C[C@@H](O)CN3C(=O)[C@@H](NC(C)=O)C(C)(C)C)C(N)=O)cc2)cc1F | 21.2 µM | > 57.5 µM
46 | Cc1ncsc1-c1ccc([C@H](C)NC(=O)[C@@H]2C[C@@H](O)CN2C(=O)[C@@H](n2cc(C3CC3)nn2)C(C)(C)C)cc1 | 0.0039 µM | 0.0033 µM
47 | CC(=O)N[C@H](C(=O)N1C[C@H](O)C[C@H]1C(=O)N[C@H](Cc1ccc(C)cc1)C(N)=O)C(C)(C)C | > 51.8 µM | > 57.5 µM
48 | CC[C@H](C)[C@@H](C(=O)N1C[C@H](O)C[C@H]1C(=O)N[C@H](Cc1ccc(-c2ccccc2)cc1)C(N)=O)n1cc(C2CC2)nn1 | 0.087 µM | 0.074 µM
49 | CC(=O)N[C@H](C(=O)N1C[C@H](O)C[C@H]1C(=O)N[C@H](Cc1ccccc1)C(N)=O)C(C)(C)C | > 51.8 µM | > 57.5 µM
50 | CC(=O)N[C@H](C(=O)N1C[C@H](O)C[C@H]1C(=O)N[C@H](Cc1ccc(-c2cccc(Cl)n2)cc1)C(N)=O)C(C)(C)C | 4.2 µM | > 57.5 µM
51 | CC(C)(C)[C@H](N=[N+]=[N-])C(=O)N1C[C@H](O)C[C@H]1C(=O)N[C@H](Cc1ccc(-c2ccccc2)cc1)C(N)=O | 23.9 µM | 35 µM
52 | CC(=O)N[C@H](C(=O)N1C[C@H](O)C[C@H]1C(=O)N[C@H](Cc1ccc(C(C)(C)C)cc1)C(N)=O)C(C)(C)C | > 51.8 µM | > 57.5 µM
53 | CC(=O)N[C@H](C(=O)N1C[C@H](O)C[C@H]1C(=O)N[C@H](Cc1ccc(I)cc1)C(N)=O)C(C)(C)C | 2.6 µM | 6.1 µM
54 | CC(=O)N[C@H](C(=O)N1C[C@H](O)C[C@H]1C(=O)N[C@H](Cc1ccc(-c2cccnc2)cc1)C(N)=O)C(C)(C)C | 2.7 µM | 45.2 µM
55 | CC(=O)N[C@H](C(=O)N1C[C@H](O)C[C@H]1C(=O)N[C@H](Cc1ccc(C#N)cc1)C(N)=O)C(C)(C)C | 9 µM | > 57.5 µM
56 | NC(=O)[C@@H](Cc1ccc(-c2ccccc2)cc1)NC(=O)[C@@H]1C[C@@H](O)CN1C(=O)Cc1cccnc1 | > 51.8 µM | > 57.5 µM
57 | CC(=O)N[C@H](C(=O)N1C[C@H](O)C[C@H]1C(=O)N[C@H](C(N)=O)c1ccc(-c2scnc2C)cc1)C(C)(C)C | 2.15 µM | 14 µM
58 | NC(=O)[C@@H](Cc1ccc(-c2ccccc2)cc1)NC(=O)[C@@H]1C[C@@H](O)CN1C(=O)Cc1ccccn1 | > 51.8 µM | > 57.5 µM
59 | Cc1noc(CC(=O)N2C[C@H](O)C[C@H]2C(=O)N[C@H](Cc2ccc(-c3ccccc3)cc2)C(N)=O)n1 | > 51.8 µM | > 57.5 µM
